Measurements as given in the supplement of paper PMC10307832.

Key:
Test in all cases: relative viability (nuclei count vs DMSO), 5 days (fraction); higher = more cells survive
CUDC-101 + OSI-027 = compound: C#Cc1cccc(Nc2ncnc3cc(OC)c(OCCCCCCC(=O)NO)cc23)c1 [CUDC-101] + COc1cccc2cc(-c3nc([C@H]4CC[C@H](C(=O)O)CC4)n4ncnc(N)c34)[nH]c12 [OSI-027] (partner 0.5 µM)
Summary of the method: (§1)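 Relative viability divides the nuclei count in treated wells by that in vehicle wells. Lung cancer cell lines were seeded in 1536-well plates, dosed by pin tool the next day, and fixed and stained after 5 days in one step with final 0.05% Triton X-100, 1% formaldehyde and 1 ug/ml Hoechst. Dosing was a single drug or a fixed anchor-drug dose plus five library-drug doses (not always all listed) in √10 steps, and values are medians of duplicate plates imaged at 4×.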

Vandetanib + Decitabine = compound: COc1cc2/c(=N/c3ccc(Br)cc3F)nc[nH]c2cc1OCC1CCN(C)CC1 [Vandetanib] + Nc1ncn([C@H]2C[C@H](O)[C@@H](CO)O2)c(=O)n1 [Decitabine] (partner 2 µM)
Summary of the method: as §1

NVP-TAE684 + Linsitinib = compound: COc1cc(N2CCC(N3CCN(C)CC3)CC2)ccc1Nc1ncc(Cl)c(Nc2ccccc2S(=O)(=O)C(C)C)n1 [NVP-TAE684] + C[C@]1(O)C[C@@H](c2nc(-c3ccc4ccc(-c5ccccc5)nc4c3)c3c(N)nccn32)C1 [Linsitinib] (partner 1 µM)
Summary of the method: as §1

[1] = compound: C1=CC=C2C(=C1)N=C(S2)C(C#N)C3=NC(=NC=C3)NCCC4=CN=CC=C4 + Cc1nc(Nc2ncc(C(=O)Nc3c(C)cccc3Cl)s2)cc(N2CCN(CCO)CC2)n1 [Dasatinib] (partner 0.075 µM)
Summary of the method: as §1

Cell Line | relative viability (CUDC-101 + OSI-027; first compound 0.01 µM) | relative viability (CUDC-101 + OSI-027; first compound 0.03162 µM) | relative viability (CUDC-101 + OSI-027; first compound 0.1 µM) | relative viability (CUDC-101 + OSI-027; first compound 0.3162 µM) | relative viability (CUDC-101 + OSI-027; first compound 1 µM) | relative viability (Vandetanib + Decitabine; first compound 0.02 µM) | relative viability (Vandetanib + Decitabine; first compound 0.06325 µM) | relative viability (Vandetanib + Decitabine; first compound 0.2 µM) | relative viability (Vandetanib + Decitabine; first compound 0.6325 µM) | relative viability (Vandetanib + Decitabine; first compound 2 µM) | relative viability (NVP-TAE684 + Linsitinib; first compound 0.2 µM) | relative viability (NVP-TAE684 + Linsitinib; first compound 0.6325 µM) | relative viability (NVP-TAE684 + Linsitinib; first compound 2 µM) | relative viability ([1]; first compound 0.005 µM) | relative viability ([1]; first compound 0.01581 µM) | relative viability ([1]; first compound 0.05 µM) | relative viability ([1]; first compound 0.1581 µM) | relative viability ([1]; first compound 0.5 µM)
NCI-H1793 | 0.291 | 0.255 | 0.255 | 0.25 | 0.218 | 0.424 | 0.407 | 0.517 | 0.401 | 0.439 | 0.734 | 0.857 | 0.9 | 0.366 | 0.419 | 0.363 | 0.436 | 0.435
NCI-H661 | 0.709 | 0.808 | 0.735 | 0.711 | 0.346 | 0.536 | 0.556 | 0.527 | 0.46 | 0.446 | 0.454 | 0.58 | 0.625 | 0.778 | 0.785 | 0.817 | 0.917 | 0.805
EKVX | 0.649 | 0.696 | 0.694 | 0.798 | 0.579 | 0.378 | 0.322 | 0.345 | 0.279 | 0.212 | 0.896 | 0.897 | 0.709 | 0.464 | 0.473 | 0.523 | 0.473 | 0.547
HCC-827 | 0.813 | 0.46 | 0.177 | 0.144 | 0.136 | 0.361 | 0.302 | 0.335 | 0.191 | 0.152 | 0.978 | 1.01 | 0.973 | 0.331 | 0.301 | 0.336 | 0.307 | 0.284
NCI-H1395 | 0.746 | 0.629 | 0.628 | 0.727 | 0.508 | 0.737 | 0.704 | 0.655 | 0.788 | 0.74 | 1.3 | 0.766 | 0.862 | 0.353 | 0.398 | 0.408 | 0.411 | 0.396
NCI-H2009 | 0.672 | 0.737 | 0.739 | 0.8 | 0.494 | 0.359 | 0.394 | 0.369 | 0.371 | 0.325 | 1.08 | 1.21 | 0.986 | 0.257 | 0.25 | 0.261 | 0.324 | 0.267
NCI-H1437 | 0.857 | 0.876 | 0.886 | 0.952 | 0.662 | 0.534 | 0.559 | 0.556 | 0.551 | 0.545 | 1.01 | 1.02 | 0.545 | 0.363 | 0.303 | 0.528 | 0.562 | 0.376
NCI-H2087 | 0.473 | 0.548 | 0.463 | 0.679 | 0.561 | 0.364 | 0.379 | 0.281 | 0.286 | 0.233 | 1.04 | 1.04 | 0.982 | 0.72 | 0.927 | 0.81 | 1.09 | 0.651
LCLC-103H | 0.45 | 0.42 | 0.485 | 0.435 | 0.433 | 0.733 | 0.729 | 0.659 | 0.75 | 0.762 | 1.06 | 1.23 | 1.15 | 0.415 | 0.456 | 0.473 | 0.507 | 0.312
PC-14 | 1.02 | 0.813 | 0.378 | 0.571 | 0.0565 | 0.246 | 0.197 | 0.175 | 0.171 | 0.159 | 0.934 | 1.1 | 0.851 | 0.174 | 0.228 | 0.211 | 0.32 | 0.249
H3255 | 0.571 | 0.556 |  | 0.395 | 0.204 | 0.766 | 0.559 | 0.565 | 0.387 | 0.207 | 0.903 | 0.927 | 0.69 | 0.312 | 0.329 | 0.346 | 0.509 | 0.319
NCI-H460 | 0.701 | 0.62 | 0.734 | 0.762 | 0.555 | 0.459 | 0.446 | 0.338 | 0.532 | 0.49 | 0.732 | 0.911 | 0.298 | 0.356 | 0.47 | 0.451 | 0.732 | 0.418
HOP-62 | 0.862 | 0.842 | 0.896 | 0.924 | 0.567 | 0.244 | 0.267 | 0.208 | 0.202 | 0.249 | 0.97 | 0.963 | 0.755 | 0.496 | 0.59 | 0.685 | 0.807 | 0.565
HCC-78 | 0.291 | 0.352 | 0.362 | 0.335 | 0.218 | 0.715 | 0.632 | 0.683 | 0.689 | 0.643 | 0.403 | 0.359 | 0.294 | 0.386 | 0.337 | 0.42 | 0.609 | 0.407
NCI-H2085 | 0.577 | 0.646 | 0.728 | 0.835 | 0.535 | 0.536 | 0.522 | 0.525 | 0.471 | 0.574 | 0.928 | 0.82 | 0.7 | 0.277 | 0.216 | 0.236 | 0.237 | 0.219
COR-L23 | 0.786 | 0.724 | 0.792 | 0.695 | 0.39 | 0.447 | 0.442 | 0.491 | 0.401 | 0.422 | 0.871 | 0.937 | 0.419 | 0.427 | 0.516 | 0.499 | 0.581 | 0.489
HARA | 0.509 | 0.442 | 0.322 | 0.348 | 0.171 | 0.466 | 0.653 | 0.515 | 0.559 | 0.578 | 0.985 | 0.929 | 0.474 | 0.355 | 0.281 | 0.246 | 0.235 | 0.372
